This is an account of results in PMC6240685, “Strong Inhibitory Effect, Low Cytotoxicity and High Plasma Stability of Steroidal Inhibitors of N-Methyl-D-Aspartate Receptors With C-3 Amide Structural Motif” (Frontiers in Pharmacology, 2018).

One assay relates to GABARs. The assay can be described thus: Inhibition of native GABAR responses in cultured hippocampal neurons. In kind it is cell-based, rat. As to the method: FIGURE 8 The effect of compound 6 on peak and steady-state responses of native NMDARs, AMPARs, and GABARs. (A) Examples of traces obtained from cultured hippocampal neurons. Compound 6 (10 μM) was pre-applied in the absence of agonists followed by co-application with NMDA (100 μM), AMPA (100 μM), and GABA (5 μM) (duration of agonist and steroid application is indicated by filled and open bars, respectively). (B) Bar graph represents the mean values of relative changes in the peak (black columns) and steady-state (red columns) responses of native NMDARs, AMPARs, and GABARs recorded in the continuous presence of 10 μM compound 6. Error bars represent SD from five independent measurements. Asterisks mark significance at the level of P < 0.05 (Paired t-test). […]
Electrophysiological experiments were performed on HEK293 cells transfected with plasmids encoding rat GluN1-1a/GluN2A-D and GFP genes as described previously, ([Petrovic et al., 2005]; [Cais et al., 2008]; [Korinek et al., 2010]) or on primary hippocampal neurons prepared from P0–P1 rats, plated on collagen/poly-D-lysine-coated glass coverslips at a density of ∼50,000 cells/cm^2, and grown in Neurobasal A medium with B27 Supplement (Gibco). […] Agonist-induced responses were low-pass filtered at 2 kHz, digitally sampled at 5 kHz, and analyzed with pClamp software version 10.5 (Molecular Devices). […]

Another assay concerns HepG2 cells. The assay can be described thus: ROS induction (CM-H2DCFDA). In kind it is cell-based. As to conditions: Homo sapiens, HepG2, 72 h; read-out: ROS induction EC50.

For `C[C@@]12CCC[C@H]1[C@@H]1CC[C@@H]3C[C@H](NC(=O)[C@@H](N)CC(=O)O)CC[C@]3(C)[C@H]1CC2` [Compound 6, (S)-3-amino-4-(((3R,5R,8S,9S,10S,13S,14S)-10,13-dimethylhexadecahydro-1H-cyclopenta[a]phenanthren-3-yl)amino)-4-oxobutanoic acid], in the assay with GABARs (5 μM GABA, hippocampal neurons), it took 17 ± 0.2 µM to reach half-maximal inhibition (IC50). Also, in the assay on GABARs (10 μM compound present continuously, GABA 5 μM), the “inhibition of steady-state vs peak response, GABARs” value is on record as “more efficient inhibitor of tonically activated receptors at the steady–state”. For the same molecule, the half-maximal effective concentration (EC50) (in general, the midpoint of the concentration-response curve) in the assay on HepG2 cells was above 200 µM.
